From PMC12428139, “The Functional State of Thermoplasma acidophilum Pyruvate Kinase Relies on an Extra Carboxyl-Terminal Sequence” (International Journal of Molecular Sciences, 2025)
Values joined by “and” are separate entries in the source; they are usually repeats but may differ in a detail not shown here. Equal entries are not always repeated. Where two headings read alike, the source gives them in different places. Values belong to the molecule of their own block, whether it stands above or below them.

Columns and labels:
[1] = molecular target: T1, WT-ThaPK (Thermoplasma acidophilum, UniProt P32044); experiment: LDH/NADH coupled assay, dead-end inhibition, global fit; assay type: biochemical
T1 construct: gene Ta0896; full length (1635 bp gene, 544 residues), N-terminal His6 tag and thrombin site (20 residues) kept, pET15b, E. coli BL21(DE3) Codon Plus-RIL
From the text: LDH/NADH coupled assay, dead-end inhibition, global fit on WT-ThaPK

[2] = molecular target: ECTS truncated-ThaPK (Thermoplasma acidophilum pyruvate kinase lacking the extra C-terminal sequence) (Thermoplasma acidophilum) (UniProt P32044); experiment: native gel or EMSA; 1D Blue Native PAGE, linear 4-18% acrylamide gradient, 4 °C, 50 µg protein per well; bands excised and resolved by 2D SDS-PAGE; masses from regression on standards, triplicate gels
[3] = molecular target: the molecule itself; experiment: SEC; Superdex 200 (10/300), 50 mM HEPES pH 7.5, 150 mM NaCl, 500 µg of enzyme loaded, calibrated with BIORAD gel filtration standards

Ki ([1]; read-out: Ki (Oxalate)): 44 ± 1 µM
Molecule: O=C(O)C(=O)O [oxalate]

Ki ([1]; read-out: Ki (AMP)): 3300 ± 300 µM
Molecule: Nc1ncnc2c1ncn2[C@@H]1O[C@H](COP(=O)(O)O)[C@@H](O)[C@H]1O [AMP]

stoichiometry N [2]: 2 and 3
Molecule: ECTS truncated-ThaPK (Thermoplasma acidophilum pyruvate kinase lacking the extra C-terminal sequence) (from UniProt P32044 1-450) (domain or fragment)

B1: Thermoplasma acidophilum pyruvate kinase, wild type (WT-ThaPK) (enzyme, UniProt P32044 1-544, looked up)
chain: MKTKIVATIGPASSSPEIMKQMIDNGLSLVRINSAHADIKDVSKITQMVRSINRDVGIMIDLKGPELRTGEFAGGTLKISSGKDYVMGKDIVLNNMNVLSAVQVGDRILMSDGEVSFEVESTDPFTIRALNDGVLRDRSRVNIPGRFIELGTITDRDRAFIREGIADGVDFFALSFVQKSENVDSLRDFVIDSGGDQYIISKIETKSGLDNIEEIVKSSDGIMVARGDLGVELPLKEVVLAQKHIIKTAHEDGDFTIVATQVLESMVNNSSPTRAEISDITNAIIDNADALMLSEESAIGKYPVQAVRTLKEVSDYVEDKVSFDSSYYFKGNTIAYSVARAAKILSDDIKSDGIVALTHTGSTVRMISSLRPKAMVYAATVSESLARKLNIYFGVLPLHMEGNAEDLSFSEIMEYIVRSGRFADGSKLVMTSGDPYFTFGGTNDVKVAVVGKFIGRGYSFGDSLSGTATYGTKGDILMSEDGRIPGTDFRAFIFTSDIKPSLMSSLKGKTVVTKARLVRQIKEGERIYIDGNTGIILMASPDQK
notes: pyruvate kinase of Thermoplasma acidophilum; synthetic gene of 1635 bp cloned NdeI/BamHI in pET15b; last residue K544; monomer 59,147.48 Da plus 20 extra residues (His6 tag and thrombin site, 2193.26 Da) that thrombin could not cleave; The 20 additional N-terminal residues from pET15b (His6 tag and thrombin cleavage site) stayed on the protein in all experiments; also called wild-type enzyme; …
stoichiometry N [3]: 4
